Laboratory results: patent publication US20260234123A1, “Inhibitors of NLRP3” (Mwyngil Therapeutics, Inc., priority 2023, published 2026)

Each compound was assayed on IL1b release THP-1 (assay: IL1b release THP-1 (ELISA)). Conditions: Homo sapiens; average EC50; THP-1 cells primed with 1 μg/ml LPS 4 h, stimulated with 10 μM Nigericin 2 h; IL-1β in supernatant by ELISA; read-out: THP 1 IL 1b, EC50.
Format: cell-based
Procedure: Example A. Primary Assays Used to Determine IL1b Release THP-1 (ELISA)
• Microbiological safety cabinet, classII (NuAire, USA) • CO2 incubator (VWR Science, USA) • Countess Automated Cell Counter (Invitrogen, USA, cat. number C10227) • Centrifuge CM 6M (Elmi, Latvia) • Serological pipettes 2, 5, 10, 25, 50, 100 ml sterile (Santa Cruz Biotechnology, Inc., USA, sc-200277, sc-200279, sc-200281, sc-200283, Sc-213234, sc-516777) • Single and multichannel pipettes 0.2-10 μL, 50-1200 μL (Eppendorf AG-Hamburg, Germany) • 50 mL PP sterile tubes (Greiner, cat. Number 210261).
• RPMI-1640 (PanEco, C330) • Sodium pyruvate (Paneco, cat. number Φ023) • Non-Essential amino acids 50× (Paneco, Φ116) • Essential amino acids 50× (Paneco, Φ115/50) • FBS (Hyclone Laboratories Inc, USA, SV30160.03) • Antibiotic-antimycotic (Gibco, USA, 15240-062) • 2-mercaptoethanol 1000×55 mM (Gibco, USA, 21985-023) • LPS-EB ultrapure (invivogen, cat. number tlrl-3pelps) • Nigericin (Sigma, cat. number N7143) • ELISA kit, IL-1beta (Cat #A-8766, Interleukin-1 beta-EIA-BEST, Vector Best). LPS Preparation (5 mg/ml): • 1. Add 1 ml of endotoxin-free water according manufacturer's protocol • 2. Vortex until complete solubilization • 3. Aliquote and store at […] for long term storage.
• 1. Add methanol to 10 mg of powder to produce the 10 mM Nigericin solution • 2. Vortex until complete solubilization • 3. Store at 4° C.
THP-1 cells were propagated in RPMI-1640 (10% FBS, Antibiotic-antimycotic 1×, non-Essential amino acids 1×, Essential amino acids 1×, Sodium pyruvate 2×, 2-mercaptoethanol 0.05 mM) at 37° C. and at 5% CO2 in an incubator.
• 1. THP-1 cells were spined at 100 g for 5 min in 50 ml tube. • 2. THP-1 cells were resuspended in warm culture medium (w/o FBS, w/o Antibiotic-antimycotic, non-Essential amino acids 1×, Essential amino acids 1×, Sodium pyruvate 2×) to the concentration 1,3×10^6 cells. • 3. THP-1 cells were primed in tube with 1 μg/ml of LPS for 4 h at 37° C. and at 5% CO2 in an incubator. • 4. THP-1 cells were stimulated with 10 μM of Nigericin (Cat #N7143-10 MG, Sigma Aldrich) for 2 h at 37° C. and at 5% CO2 in an incubator. • 5. After the full activation, the supernatant was collected and the levels of IL-1β were assessed via ELISA according manufacturer instructions (Cat #A-8766, Vector Best).
The average EC50 values are shown in Table A, wherein “A” corresponds to EC50: A≤0.5 μM, “B” corresponds to 0.5 μM<EC50≤1.0 μM, “C” 1.0 μM<EC50≤5.0 μM, “D” corresponds to 5.0 μM<EC50≤30 μM and “E” corresponds to EC50>30 μM.

| SMILES | EC50 [nM] |
| --- | --- |
| Cc1cc(N[C@@H]2CCCN(CC(C)C)C2)nnc1-c1ccc(C(F)(F)F)cc1NS(C)(=O)=O [Compound 46, (R)—N-(2-(6-((1-Isobutylpiperidin-3-yl)amino)-4-methylpyridazin-3-yl)-5-(trifluoromethyl)phenyl) methanesulfonamide] | 500 to 1000 |
| Cc1cc(N[C@@H]2CCCN(CC(C)(C)O)C2)nnc1-c1ccc(C(F)(F)F)cc1NS(C)(=O)=O [Compound 47] | 500 to 1000 |
| CC(C)=CCN1CCC[C@@H](Nc2cc(C)c(-c3ccc(C(F)(F)F)cc3NS(C)(=O)=O)nn2)C1 [Compound 48, (R)—N-(2-(4-Methyl-6-((1-(3-methylbut-2-en-1-yl)piperidin-3-yl)amino)pyridazin-3-yl)-5-(trifluoromethyl)phenyl) methanesulfonamide] | 500 to 1000 |
| COC(C)(C)CCN1CCC[C@@H](Nc2cc(C)c(-c3ccc(C(F)(F)F)cc3NS(C)(=O)=O)nn2)C1 [Compound 53, N-[2-[6-[[(3R)-1-(3-methoxy-3-methyl-butyl)-3-piperidyl]amino]-4-methyl-pyridazin-3-yl]-5-(trifluoromethyl)phenyl]methanesulfon-amide] | 1000 to 5000 |
| Cc1cc(N[C@@H]2CCCN(CCC(C)(C)O)C2)nnc1-c1ccc(C(F)(F)F)cc1NS(C)(=O)=O [Compound 55, (R)—N-(2-(6-((1-(3-Hydroxy-3-methylbutyl)piperidin-3-yl)amino)-4-methylpyridazin-3-yl)-5-(trifluoromethyl)phenyl) methanesulfonamide] | 1000 to 5000 |
| COCCN1CCC[C@@H](Nc2cc(C)c(-c3ccc(C(F)(F)F)cc3NS(C)(=O)=O)nn2)C1 [Compound 56, (R)—N-(2-(6-((1-(2-Methoxyethyl)piperidin-3-yl)amino)-4-methylpyridazin-3-yl)-5-(trifluoromethyl)phenyl) methanesulfonamide] | 1000 to 5000 |
| CCN1CCC[C@@H](Nc2nnc(-c3ccc(C(F)(F)F)cc3NS(=O)(=O)CC)cc2C)C1 [Compound 62, (R)—N-(2-(6-((1-Ethylpiperidin-3-yl)amino)-5-methylpyridazin-3-yl)-5-(trifluoromethyl)phenyl) ethanesulfonamide] | < 500 |
| CCN1CCC[C@@H](Nc2cc(C)c(-c3ccc(C(F)(F)F)cc3NS(=O)(=O)CC)nn2)C1 [Compound 63, N-[2-[6-[[(3R)-1-ethyl-3-piperidyl]amino]-4-methyl-pyridazin-3-yl]-5-(trifluoromethyl)phenyl]ethanesulfon-amide] | < 500 |
| CCN1CCC[C@@H](Nc2nnc(-c3ccc(C(F)(F)F)cc3NS(=O)(=O)C3CC3)cc2C)C1 [Compound 64] | < 500 |
| CCN1CCC[C@@H](Nc2cc(C)c(-c3ccc(C(F)(F)F)cc3NS(=O)(=O)C3CC3)nn2)C1 [Compound 65, (R)—N-(2-(6-((1-Ethylpiperidin-3-yl)amino)-4-methylpyridazin-3-yl)-5-(trifluoromethyl)phenyl) cyclopropanesulfonamide] | < 500 |
| CCN1C[C@H](F)C[C@@H](Nc2nnc(-c3ccc(C(F)(F)F)cc3NS(C)(=O)=O)cc2C)C1 [Compound 66, N-(2-(6-(((3R,5R)-1-ethyl-5-fluoropiperidin-3-yl)amino)-5-methylpyridazin-3-yl)-5-(trifluoromethyl)phenyl) methanesulfonamide] | 500 to 1000 |
| Cc1cc(-c2ccc(C(F)(F)F)cc2NS(C)(=O)=O)nnc1N[C@@H]1CCCNC1 [Compound 67, (R)—N-(2-(5-methyl-6-(piperidin-3-ylamino)pyridazin-3-yl)-5-(trifluoromethyl)phenyl) methanesulfonamide] | 1000 to 5000 |
| CCN1CCC[C@@H](Nc2cc(C)c(-c3ccc(C(F)(F)F)cc3NS(=O)(=O)c3c[nH]cn3)nn2)C1 [Compound 69, N-[2-[6-[[(3R)-1-ethyl-3-piperidyl]amino]-4-methyl-pyridazin-3-yl]-5-(trifluoromethyl)phenyl]-1H-imidazole-4-sulfonamide] | 1000 to 5000 |
| CCN1CCC[C@@H](Nc2cc(C)c(-c3ccc(C(F)(F)F)cc3NS(=O)(=O)C(C)C)nn2)C1 [Compound 70, N-[2-[6-[[(3R)-1-ethyl-3-piperidyl]amino]-4-methyl-pyridazin-3-yl]-5-(trifluoromethyl)phenyl]propane-2-sulfonamide] | 1000 to 5000 |
| Cc1cc(N[C@@H]2CCCNC2)nnc1-c1ccc(C(F)(F)F)cc1NS(C)(=O)=O [Compound 71, N-[2-[4-methyl-6-[[(3R)-3-piperidyl]amino]pyridazin-3-yl]-5-(trifluoromethyl)phenyl]methanesulfon-amide] | 1000 to 5000 |
| CCN1CCC[C@@H](Nc2nnc(-c3ccc(C(F)(F)F)cc3NS(=O)(=O)C(C)C)cc2C)C1 [Compound 72] | 5000 to 30000 |

Further lines, results first:

| EC50 [nM] | SMILES |
| --- | --- |
| 1000 to 5000 | CCN1CCC[C@@H](Nc2cc(C(F)(F)F)c(-c3ccc(C(F)(F)F)cc3NS(C)(=O)=O)nn2)C1 [Compound 49, N-[2-[6-[[(3R)-1-ethyl-3-piperidyl]amino]-4-(trifluoromethyl)pyridazin-3-yl]-5-(trifluoromethyl)phenyl]methanesulfon-amide] |
| 1000 to 5000 | CN1CCC[C@@H](Nc2nnc(-c3ccc(C(F)(F)F)cc3NS(C)(=O)=O)c3c2CCCC3)C1 [Compound 50, (R)—N-(2-(4-((1-Methylpiperidin-3-yl)amino)-5,6,7,8-tetrahydrophthalazin-1-yl)-5-(trifluoromethyl)phenyl) methane sulfonamide] |
| 1000 to 5000 | CN1CCC[C@@H](Nc2cc(C(F)(F)F)c(-c3ccc(C(F)(F)F)cc3NS(C)(=O)=O)nn2)C1 [Compound 51, N-[2-[6-[[(3R)-1-methyl-3-piperidyl]amino]-4-(trifluoromethyl)pyridazin-3-yl]-5-(trifluoromethyl)phenyl]methanesulfon-amide] |
| 1000 to 5000 | CN1CCC[C@@H](Nc2nnc(-c3ccc(C(F)(F)F)cc3NS(C)(=O)=O)cc2C(F)(F)F)C1 [Compound 52, N-[2-[6-[[(3R)-1-methyl-3-piperidyl]amino]-5-(trifluoromethyl)pyridazin-3-yl]-5-(trifluoromethyl)phenyl]methanesulfon-amide] |
| 5000 to 30000 | CN1CCC[C@@H](Nc2nnc(-c3ccc(C(F)(F)F)cc3NS(C)(=O)=O)c3c2C2CCC3CC2)C1 [Compound 54, N-[2-[6-[[(3R)-1-methyl-3-piperidyl]amino]-4,5-diazatricyclo[6.2.2.02,7]dodeca-2(7),3,5-trien-3-yl]-5-(trifluoromethyl)phenyl]methanesulfon-amide] |
| 5000 to 30000 | CCN1CCC[C@@H](Nc2nnc(-c3ccc(C(F)(F)F)cc3NS(=O)(=O)c3c[nH]cn3)cc2C)C1 [Compound 68, (R)—N-(2-(6-((1-Ethylpiperidin-3-yl)amino)-5-methylpyridazin-3-yl)-5-(trifluoromethyl)phenyl)-1H-imidazole-5-sulfonamide] |
| 5000 to 30000 | CN1CCC[C@@H](Nc2nnc(-c3ccc(C(F)(F)F)c4c3NS(=O)(=O)N4)cc2C(F)(F)F)C1 [Compound 93, 6-[2,2-dioxo-4-(trifluoromethyl)-1,3-dihydro-2lambda6,1,3-benzothiadiazol-7-yl]-N-[(3R)-1-methyl-3-piperidyl]-4-(trifluoromethyl)pyridazin-3-amine] |
| < 500 | Cc1cc(N[C@@H]2CCCN(C)C2)nnc1-c1ccc(C(F)(F)F)c(N)c1N [Compound 100, (R)-3-(4-methyl-6-((1-methylpiperidin-3-yl)amino)pyridazin-3-yl)-6-(trifluoromethyl)benzene-1,2-diamine] |
| 1000 to 5000 | CN1CCC[C@@H](Nc2cc(C(F)(F)F)c(-c3ccc(C(F)(F)F)c(N)c3N)nn2)C1 [Compound 101, 3-[6-[[(3R)-1-methyl-3-piperidyl]amino]-4-(trifluoromethyl)pyridazin-3-yl]-6-(trifluoromethyl)benzene-1,2-diamine] |
| 5000 to 30000 | CN1CCC[C@@H](Nc2nnc(-c3ccc(C(F)(F)F)c(N)c3N)cc2C(F)(F)F)C1 [Compound 102, 3-[6-[[(3R)-1-methyl-3-piperidyl]amino]-5-(trifluoromethyl)pyridazin-3-yl]-6-(trifluoromethyl)benzene-1,2-diamine] |
